# Data reported in ChEMBL document CHEMBL3885881, “DrugMatrix”.
# Species on record: Rattus norvegicus
# Assay: DrugMatrix - Regimen: Daily Repeat
# Assay type: toxicity, organism-based, Sprague-Dawley
# Set-up: regimen Daily Repeat, gender Male, age 6-8 weeks
# Settings: in vivo, po, route oral GAVAGE, […]; for URIC ACID / ALANINE AMINOTRANSFERASE / ALBUMIN / ALKALINE PHOSPHATASE / ASPARTATE AMINOTRANSFERASE / BLOOD UREA NITROGEN / CARBON DIOXIDE / CHLORIDE / CREATINE PHOSPHOKINASE / CREATININE / GLUCOSE / LACTATE DEHYDROGENASE / LIPASE / PHOSPHORUS / POTASSIUM / SODIUM / TOTAL BILIRUBIN / TOTAL PROTEIN / CHOLESTEROL: tissue Plasma; for ABSOLUTE BASOPHIL / ABSOLUTE EOSINOPHIL / ABSOLUTE LYMPHOCYTE / ABSOLUTE MONOCYTE / ABSOLUTE SEGMENTED NEUTROPHIL / BASOPHIL / EOSINOPHIL / ERYTHROCYTE COUNT / HEMATOCRIT / HEMOGLOBIN / LEUKOCYTE COUNT / LYMPHOCYTE / MEAN CORPUSCULAR HEMOGLOBIN / MEAN CORPUSCULAR HEMOGLOBIN CONCENTRATION / MONOCYTE / NEUTROPHIL / NUCLEATED RED BLOOD CELLS / PLATELET COUNT: tissue Blood
# [1] = 250 mg/kg, 120 h, dose level Low, time 5 day
# [2] = 2500 mg/kg, 72 h, dose level High, time 3 day
# [3] = 2500 mg/kg, 120 h, dose level High, time 5 day
smiles,measurement,setting,value
Cc1noc(NS(=O)(=O)c2ccc(N)cc2)c1C [SULFISOXAZOLE],URIC ACID,"250 mg/kg, 72 h, dose level Low, time 3 day",1.8 mg/dL
same,ABSOLUTE BASOPHIL,[1],0 CELLS/uL
same,ABSOLUTE EOSINOPHIL,[1],0 CELLS/uL
same,ABSOLUTE LYMPHOCYTE,[1],9180.67 CELLS/uL
same,ABSOLUTE MONOCYTE,[1],0 CELLS/uL
same,ABSOLUTE SEGMENTED NEUTROPHIL,[1],986 CELLS/uL
same,BASOPHIL,[1],0%
same,EOSINOPHIL,[1],0%
same,ERYTHROCYTE COUNT,[1],5.62 x10E6/uL
same,HEMATOCRIT,[1],34.93%
same,HEMOGLOBIN,[1],13.27 G/DL
same,LEUKOCYTE COUNT,[1],10.17 x10E3/uL
same,LYMPHOCYTE,[1],90.67%
same,MEAN CORPUSCULAR HEMOGLOBIN,[1],23.63 pg
same,MEAN CORPUSCULAR HEMOGLOBIN CONCENTRATION,[1],38 G/DL
same,MONOCYTE,[1],0%
same,NEUTROPHIL,[1],9.33%
same,NUCLEATED RED BLOOD CELLS,[1],0 /100WBC
same,PLATELET COUNT,[1],1021 x10E3/uL
same,ALANINE AMINOTRANSFERASE,[1],64.33 u/L
same,ALBUMIN,[1],4 G/DL
same,ALKALINE PHOSPHATASE,[1],394 u/L
same,ASPARTATE AMINOTRANSFERASE,[1],103.67 u/L
same,BLOOD UREA NITROGEN,[1],15 mg/dL
same,CARBON DIOXIDE,[1],30.67 mmol/L
same,CHLORIDE,[1],101.67 MEQ/L
same,CREATINE PHOSPHOKINASE,[1],404 u/L
same,CREATININE,[1],0.18 mg/dL
same,GLUCOSE,[1],149.33 mg/dL
same,LACTATE DEHYDROGENASE,[1],127.33 u/L
same,LIPASE,[1],11 u/L
same,PHOSPHORUS,[1],10.7 mg/dL
same,POTASSIUM,[1],5.9 MEQ/L
same,SODIUM,[1],143.87 MEQ/L
same,TOTAL BILIRUBIN,[1],0.17 mg/dL
same,TOTAL PROTEIN,[1],5.9 G/DL
same,URIC ACID,[1],1 mg/dL
same,ABSOLUTE BASOPHIL,[2],0 CELLS/uL
same,ABSOLUTE EOSINOPHIL,[2],133 CELLS/uL
same,ABSOLUTE LYMPHOCYTE,[2],8008.67 CELLS/uL
same,ABSOLUTE MONOCYTE,[2],152 CELLS/uL
same,ABSOLUTE SEGMENTED NEUTROPHIL,[2],3173 CELLS/uL
same,BASOPHIL,[2],0%
same,EOSINOPHIL,[2],1%
same,ERYTHROCYTE COUNT,[2],4.62 x10E6/uL
same,HEMATOCRIT,[2],28.6%
same,HEMOGLOBIN,[2],11.27 G/DL
same,LEUKOCYTE COUNT,[2],11.47 x10E3/uL
same,LYMPHOCYTE,[2],67%
same,MEAN CORPUSCULAR HEMOGLOBIN,[2],24.33 pg
same,MEAN CORPUSCULAR HEMOGLOBIN CONCENTRATION,[2],39.47 G/DL
same,MONOCYTE,[2],1%
same,NEUTROPHIL,[2],31%
same,NUCLEATED RED BLOOD CELLS,[2],0 /100WBC
same,PLATELET COUNT,[2],1118.33 x10E3/uL
same,ALANINE AMINOTRANSFERASE,[2],65.33 u/L
same,ALBUMIN,[2],4 G/DL
same,ALKALINE PHOSPHATASE,[2],312 u/L
same,ASPARTATE AMINOTRANSFERASE,[2],109.67 u/L
same,BLOOD UREA NITROGEN,[2],13.67 mg/dL
same,CARBON DIOXIDE,[2],24.67 mmol/L
same,CHLORIDE,[2],98.33 MEQ/L
same,CHOLESTEROL,[2],78.33 mg/dL
same,CREATINE PHOSPHOKINASE,[2],1633.33 u/L
same,CREATININE,[2],0.24 mg/dL
same,GLUCOSE,[2],172.33 mg/dL
same,LACTATE DEHYDROGENASE,[2],198.67 u/L
same,LIPASE,[2],10.67 u/L
same,PHOSPHORUS,[2],11.6 mg/dL
same,POTASSIUM,[2],4.69 MEQ/L
same,SODIUM,[2],140.23 MEQ/L
same,TOTAL BILIRUBIN,[2],0.0667 mg/dL
same,TOTAL PROTEIN,[2],6.13 G/DL
same,URIC ACID,[2],1.5 mg/dL
same,ABSOLUTE BASOPHIL,[3],0 CELLS/uL
same,ABSOLUTE EOSINOPHIL,[3],0 CELLS/uL
same,ABSOLUTE LYMPHOCYTE,[3],10533.67 CELLS/uL
same,ABSOLUTE MONOCYTE,[3],131 CELLS/uL
same,ABSOLUTE SEGMENTED NEUTROPHIL,[3],502 CELLS/uL
same,BASOPHIL,[3],0%
same,EOSINOPHIL,[3],0%
same,ERYTHROCYTE COUNT,[3],5.59 x10E6/uL
same,HEMATOCRIT,[3],35.7%
same,HEMOGLOBIN,[3],13.8 G/DL
same,LEUKOCYTE COUNT,[3],11.17 x10E3/uL
same,LYMPHOCYTE,[3],94.33%
same,MEAN CORPUSCULAR HEMOGLOBIN,[3],24.7 pg
same,MEAN CORPUSCULAR HEMOGLOBIN CONCENTRATION,[3],38.63 G/DL
same,MONOCYTE,[3],1%
same,NEUTROPHIL,[3],4.67%
same,NUCLEATED RED BLOOD CELLS,[3],0 /100WBC
same,PLATELET COUNT,[3],1151.33 x10E3/uL
same,ALANINE AMINOTRANSFERASE,[3],87.67 u/L
same,ALBUMIN,[3],4.17 G/DL
same,ALKALINE PHOSPHATASE,[3],442.67 u/L
same,ASPARTATE AMINOTRANSFERASE,[3],84.33 u/L
same,BLOOD UREA NITROGEN,[3],19.33 mg/dL
same,CARBON DIOXIDE,[3],31 mmol/L
same,CHLORIDE,[3],101.67 MEQ/L
same,CHOLESTEROL,[3],73.33 mg/dL
same,CREATINE PHOSPHOKINASE,[3],296.67 u/L
same,CREATININE,[3],0.23 mg/dL
same,GLUCOSE,[3],139 mg/dL
same,LACTATE DEHYDROGENASE,[3],98 u/L
same,LIPASE,[3],11 u/L
same,PHOSPHORUS,[3],9.13 mg/dL
same,POTASSIUM,[3],5.93 MEQ/L
same,SODIUM,[3],145.57 MEQ/L
same,TOTAL BILIRUBIN,[3],0.1 mg/dL
same,TOTAL PROTEIN,[3],6.3 G/DL
same,URIC ACID,[3],0.97 mg/dL
